The test system of data set [1] is alpha-TC-1-6. In words: Luminescent glucagon secretion assay in alpha-cell line. The class given is cell-based. Particulars: compared with DMSO negative control. As to the method:
FIG. 10 depicts the quantification of α-cell secretory activity in cells treated with DMSO, KCl, or Compound 8, using a luminescent assay for glucagon secretion.
To investigate the cell-type specificity of the compound, and to exclude the possibility that Compound 8 acts as a generic secretagogue, the compound was tested on secretion from a rodent alpha-cell line, “alpha-TC-1-6,” using a luciferase reporter for glucagon secretion that mirrors the insulin secretion assay (FIG. 10).

Data set [2] can be described thus: Plasma stability, human. Type of data set: in vitro ADME. Here is the method: (§1) Measurements were performed on human, mouse (CD-1) and rat (SD) microsomes to determine the t1/2, the plasma protein binding (“PPB”) and the plasma stability (“PS”).
Data set [3] in a line: Microsome t1/2, human. The class given is in vitro ADME. Particulars: Human microsomes. As to the method:
The pharmacokinetic activity profile of Compound 8 was assessed by various standard in vitro measurements. Measurements were performed on human, mouse (CD-1) and rat (SD) microsomes to determine the t1/2, the plasma protein binding (“PPB”) and the plasma stability (“PS”).

Data set [4] concerns Mouse MING insulinoma cells. As to the kind of experiment: Calcium influx assay (Fluo-4, FLIPR Tetra). Type of data set: cell-based. Here is the method: Mouse MING insulinoma cells were cultured in DMEM medium supplemented with 10% FBS, 100 U/mL penicillin, 100 μg/mL streptomycin, and 55 μM β-mercaptoethanol. Two days prior to the experiment, cells were seeded in 384-well clear-bottom microplates at 17,500 cells/well. For calcium imaging, microplates were washed three times with Hanks' Balanced Salt Solution (HBSS, containing Ca^2+/Mg^2+) using the CyBio Well vario plate washer. Cells were loaded with 2 μM of the calcium indicator Fluo-4 for 1 hour at 37° C. in Krebs-Ringer buffer (KRB) with 3 g/L glucose. After dye loading, the cells were washed again with HBSS and incubated in KRB with 0.5 g/L glucose for 30 minutes at 37° C. (glucose starvation conditions). After glucose starvation, microplates were transferred to FLIPR Tetra, where an automated 384-well dispensing unit added glucose (glucose stimulation conditions) together with Compound 8. Positive control measurements (“+CNT”) were performed in wells with ionomycin to prompt calcium influx without the presence of glucose. Negative control measurements (“−CNT”) were also performed in wells with Compound 8 present in and without glucose. All wells were read simultaneously at 1 Hz intervals. FIG. 20 illustrates the fold increase of measured calcium over baseline measurements performed in the absence of glucose. […] Without wishing to be bound by theory, it is believed that insulin secretagogues acts between KATP channels stimulated by glucose, and the calcium channels that induce insulin secretion.

For data set [5], the target named is T1, pancreatic glucokinase (Homo sapiens, UniProt P35557).
T1 sequence (P35557 1-465): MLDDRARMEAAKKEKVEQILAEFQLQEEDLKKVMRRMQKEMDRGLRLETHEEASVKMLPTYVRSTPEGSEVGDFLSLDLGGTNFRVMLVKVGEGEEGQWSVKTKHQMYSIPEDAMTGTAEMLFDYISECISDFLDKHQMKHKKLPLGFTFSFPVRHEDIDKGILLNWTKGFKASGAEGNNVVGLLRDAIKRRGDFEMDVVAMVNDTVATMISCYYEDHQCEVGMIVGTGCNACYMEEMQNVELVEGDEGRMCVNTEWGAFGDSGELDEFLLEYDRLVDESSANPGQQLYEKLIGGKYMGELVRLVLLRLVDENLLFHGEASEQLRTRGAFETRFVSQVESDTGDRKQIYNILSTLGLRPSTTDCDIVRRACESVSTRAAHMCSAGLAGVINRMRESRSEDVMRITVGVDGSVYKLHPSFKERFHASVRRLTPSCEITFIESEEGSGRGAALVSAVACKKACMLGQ
As to the kind of experiment: Glucokinase activation assay (ATP level). The class given is biochemical. Conditions: ATP level readout; GK-A positive control. An excerpt: FIG. 11 depicts the lack of effect of Compound 8 on glucokinase activity in cells treated with the indicated compounds. The assay is based on the measurement of ATP level. In presence of GK we observe a reduction of level of ATP with respect to the negative control (DMSO).
To rule out the possibility of Compound 8 acting as a glucokinase agonist, another well-established mechanism of augmenting insulin secretion, the compound was subjected to a glucokinase activation assay (FIG. 11).

Data set [6] concerns IP-1. In words: IP-1 secondary messenger level in treated cells. The class given is cell-based. Conditions: treated cells (data not shown). An excerpt:
Further investigation into Compound 8 included measuring levels of the secondary messengers cAMP (FIG. 9) and IP-1 (not shown) in treated cells, as compounds that increase these secondary messengers are known to augment insulin secretion, though often in ways that are not beta-cell specific.

The nature of data set [7]: Plasma stability, mouse. The class given is in vitro ADME. Here is the method:
as §1

Molecules are shown by their SMILES. Entries after “also recorded” stand apart in the source; their conditions may differ.

In the case of `Cc1cccc(NC(=O)c2ccc(OCc3c(C)noc3C)cc2)c1C` [Compound 8], in data set [1], the “alpha-cell secretory activity (luciferase reporter for glucagon secretion)” value is “not to augment luciferase secretion; also recorded: insignificant change from DMSO negative control”. The PS in data set [2] was 106.2 % remaining; in data set [7] it was 96.0 % remaining. Also, the half-life in data set [3] came out at 19.3 h. The “calcium influx in β-cells in the presence of glucose” value in data set [4] (glucose stimulation conditions (16.7 mM glucose), 1 μM, 10 μM) is recorded as “does promote calcium influx”. For the same compound, the “dose dependence of calcium influx in beta cells” value in data set [4] (only in the presence of glucose) was “dose dependent response”. Moreover, in data set [4] (without glucose), the “calcium influx in β-cells in the absence of glucose” value is “does not invoke a calcium influx”. For the same compound, the glucokinase activation entry in data set [5] is “did not show any significant activation effect; also recorded: no change in assay signal”. Besides, the IP-1 level entry in data set [6] is reported as “did not increase levels”.

Source of the values: patent US11555031B2, “Compounds and methods for regulating insulin secretion” (The Broad Institute, Inc., priority 2017, dated 2023).
